From patent US8580493B2, “Screening for compounds that modulate GPR3-mediated beta-arrestin signaling and amyloid beta peptide generation” (VIB VZW, priority 2009, dated 2013)

Columns and labels:
[1] = test system: β-arrestin 2 recruitment to GPR3; experiment: PathHunter β-arrestin assay after siRNA transfection of the CHO GPR3 β-arrestin 2 cell line; type: cell-based, Chinese hamster; details: PathHunter CHO GPR3 β-arrestin 2 cells, 20 μg siRNA, FIG. 5
Text: A modified β-galactosidase complementation assay, referred to as PathHunter™ technology, is another preferred assay method (Olson and Eglen 2007). The principle of the assay is the detection of an interaction between GPR3 and β-arrestin following receptor activation. The assay is unique because it provides a direct measure of β-arrestin binding, whereas imaging assays detect the movement of β-arrestin. […] The assay makes use of a low affinity peptide derived from the amino-terminus of Escherichia coli β-galactosidase, which is tethered to the carboxy-terminus of GPR3 (ProLink™ tag), and a w-deletion mutant of β-galactosidase, which is fused to β-arrestin (enzyme acceptor or EA). The use of the low-affinity ProLink™ peptide ensures that the enzyme fragment complementation (EFC) reaction is driven by the receptor-stimulated, reversible interaction of GPR3 with β-arrestin and not by β-galactosidase complementation in the absence of receptor stimulation. Thus, complementation between β-arrestin and GPR3 results in the formation of a functional enzyme that is capable of hydrolyzing a substrate and generating a chemiluminescent signal. Given the finding that β-arrestin modulates Aβ release, the PathHunter™ β-arrestin assay would facilitate the identification of potential allosteric modulators of Aβ generation. […]

[2] = test system: Aβ generation in CHO/β-arrestin 2/GPR3 cells; experiment: Aβ1-40 and Aβ1-42 ELISA of culture supernatants after siRNA transfection of CHO/β-arrestin 2/GPR3 cells; type: cell-based, Chinese hamster; details: 20 μg siRNA, FIG. 6
Text: Chemically synthesized, double-stranded siRNAs targeting β-arrestin 1 or 2 with 19-nucleotide duplex RNA and 2-nucleotide 3′-dTdT overhangs containing fluorescent tags to determine transfection efficiency were purchased from Qiagen. The sequences of the siRNA have been previously described (Aim et al. 2003; 2004; see also Table 1). As a control, non-silencing siRNA with the sequence 5′-[…]-3′ (SEQ ID NO:10) was used in the experiment. The PathHunter™ Chinese hamster ovary (CHO) GPR3 β-arrestin 2 cell line, which stably expresses GPR3 and β-arrestin 2, was transfected with 20 μg of siRNA using the GeneSilencer Transfection reagent (Genlantis) as previously described by Aim et al. (2003). Forty-eight hours following transfection, cells were divided into six-well and 96-well plates for further experiments. Twenty-four hours after plating, cells were placed in serum-free medium for an additional 24 hours. The PathHunter™ β-arrestin assay was performed on the cells in the 96-well plate to determine the extent of β-arrestin 2 recruitment to GPR3 following a reduction in the expression of β-arrestin 1 or β-arrestin 2.
Culture supernatant samples were collected from cells seeded in the six-well plates to determine the effect of a reduction in β-arrestin 2 recruitment to GPR3 on Aβ1-40 and Aβ1-42 generation. […]

[3] = test system: Aβ generation in HEK293 APP695 cells; experiment: Aβ1-40 and Aβ1-42 ELISA of culture supernatants after siRNA transfection of HEK293 APP695 cells; type: cell-based; details: HEK293 APP695 cells co-transfected with human GPR3 plasmid, 20 μg siRNA
Text: FIGS. 1A and 1B: Effect of siRNA-mediated β-arrestin depletion on Aβ1-40 (FIG. 1A) and Aβ1-42 (FIG. 1B) generation in HEK293 APP695 cells. Cells were transfected with pcDNA or GPR3, and siRNA targeting β-arrestin 1, 2, both, or a non-silencing (control) RNA duplex prior to measurement of Aβ1-40 (FIG. 1A) and Aβ1-42 (FIG. 1B) secretion in cell culture supernatants by ELISA. The results are expressed as the mean percentage ±SD of three independent experiments performed in duplicate relative to non-silencing siRNA (control).
Chemically synthesized, double-stranded siRNAs targeting β-arrestin 1 or 2 with 19-nucleotide duplex RNA and 2-nucleotide 3′-dTdT overhangs containing fluorescent tags to determine transfection efficiency were purchased from Qiagen. The sequences of the siRNA have been previously described (Ahn et al. 2003; 2004; see also Table 1). As a control, non-silencing siRNA with the sequence 5′-[…]-3′ (SEQ ID NO:10) was used in the experiment. […]
To directly determine the requirement of β-arrestin 1 or 2 for constitutive and GPR3-mediated Aβ generation, Aβ levels were measured in HEK293 APP695 cells following transfection with siRNA that specifically targets either β-arrestin 1 or 2 or both. β-arrestin 2 siRNA reduced constitutive Aβ1-40 and Aβ1-42 generation. […]

With “5′-AAAGCCUUCUGCGCGGAGAAU-3′ [β-arrestin 1 siRNA]” the “β-arrestin 2 recruitment to GPR3 (chemiluminescent signal)” value [1] was “clear increase”, the Aβ1-40 generation [2] was “did not affect” and the Aβ1-42 generation [2] was “modestly stimulated”. The “Aβ1-40 generation with GPR3 co-transfection” value ([3]; FIG. 1A) was “further reduction” and the “Aβ1-42 generation with GPR3 co-transfection” value ([3]; FIG. 1B) was “further reduction”.
